Data from PubChem BioAssay (NCI).
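Five concentrations, 48 hours, 96-well plates. GI50 = concentration required for 50% inhibition of growth. TGI: total growth inhibition.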 Where a SMILES comes first, the peptide text is derived from it. Bridges are numbered along the chain shown (N, C = ends). [ ]: non-standard residue; d: D form. ξ: configuration not given here. ξThr(3R) = C[C@@H](O)C(N)C(=O)O; S5 = C=CCCC[C@](C)(N)C(=O)O

Columns and labels:
Assay in all cases: NCI anticancer screen, dose series, 48 h
[1] = tested on: 786-0 renal
[2] = tested on: A498 renal
[3] = tested on: A549 NSCLC
[4] = tested on: ACHN renal
[5] = tested on: BT-549 breast
[6] = tested on: CAKI-1 renal
[7] = tested on: CCRF-CEM leukemia
[8] = tested on: COLO 205 colon
[9] = tested on: DU-145 prostate
[10] = tested on: EKVX NSCLC
[11] = tested on: HCC-2998 colon
[12] = tested on: HCT-116 colon
[13] = tested on: HCT-15 colon
[14] = tested on: HL-60(TB) leukemia
[15] = tested on: HOP-62 NSCLC
[16] = tested on: HOP-92 NSCLC
[17] = tested on: HS 578T breast
[18] = tested on: HT29 colon
[19] = tested on: K-562 leukemia
[20] = tested on: KM12 colon
[21] = tested on: LOX IMVI melanoma
[22] = tested on: M14 melanoma
[23] = tested on: MALME-3M melanoma
[24] = tested on: MCF7 breast
[25] = tested on: MDA-MB-231 breast
[26] = tested on: MDA-MB-435
[27] = tested on: MOLT-4 leukemia
[28] = tested on: NCI-H226 lung
[29] = tested on: NCI-H23 lung
[30] = tested on: NCI-H460 lung
[31] = tested on: NCI-H522 lung
[32] = tested on: NCI/ADR-RES ovarian
[33] = tested on: OVCAR-3 ovarian
[34] = tested on: OVCAR-4 ovarian
[35] = tested on: OVCAR-5 ovarian
[36] = tested on: OVCAR-8 ovarian
[37] = tested on: PC-3 prostate
[38] = tested on: RPMI-8226 leukemia
[39] = tested on: RXF 393 renal
[40] = tested on: SF-268 CNS
[41] = tested on: SF-295 CNS
[42] = tested on: SF-539 CNS
[43] = tested on: SK-MEL-2 melanoma
[44] = tested on: SK-MEL-28 melanoma
[45] = tested on: SK-MEL-5 melanoma
[46] = tested on: SK-OV-3 ovarian
[47] = tested on: SN12C renal
[48] = tested on: SNB-19 CNS
[49] = tested on: SNB-75 CNS
[50] = tested on: SW-620 colon
[51] = tested on: T-47D breast
[52] = tested on: TK-10 renal
[53] = tested on: U251 CNS
[54] = tested on: UACC-62 melanoma
[55] = tested on: UO-31 renal

CC(=O)N[C@H](C(=O)N[C@@H](CCCNC(=N)N)C(=O)N[C@@H](CCCCN)C(=O)N[C@@H](CCCNC(=N)N)C(=O)NC(C(=O)N[C@@H](CC(C)C)C(=O)N[C@@H](CCCNC(=N)N)C(=O)N[C@@]1(C)CCC/C=C\CCC[C@@](C)(C(=O)N[C@@H](CCCNC(=N)N)C(=O)N[C@@H](CCC(=O)O)C(=O)N[C@@H](CC(C)C)C(=O)N[C@H](C(=O)N[C@@H](CCC(=O)O)C(N)=O)C(C)C)NC(=O)[C@H](CCC(N)=O)NC(=O)[C@H](CC(C)C)NC(=O)[C@H](CC(C)C)NC1=O)[C@@H](C)O)C(C)C (stereo partly drawn) (Ac-VRKR[ξThr(3R)]LR[S5]LLQ[S5]RELVE-NH2; staple (Z) 8-12)
GI50 [1]: 4.2 µM | TGI [1]: 12.6 µM | GI50 [2]: 8.69 µM | TGI [2]: 18.4 µM | GI50 [3]: 6.42 µM | TGI [3]: 14.3 µM | GI50 [4]: 6.97 µM | TGI [4]: 14.7 µM | GI50 [5]: 3.45 µM | TGI [5]: 11.1 µM | GI50 [6]: 3.79 µM | TGI [6]: 10.4 µM | GI50 [7]: 11.2 µM | TGI [7]: 34.2 µM | GI50 [8]: 2.41 µM | TGI [8]: 9.89 µM | GI50 [9]: 2.68 µM | TGI [9]: 9.2 µM | GI50 [10]: 6.03 µM | TGI [10]: 14.2 µM | GI50 [11]: 7.67 µM | TGI [11]: 18.2 µM | GI50 [12]: 8.87 µM | TGI [12]: 17.1 µM | GI50 [13]: 6.22 µM | TGI [13]: 14.7 µM | GI50 [14]: 7.23 µM | TGI [14]: 19.2 µM | GI50 [15]: 3.24 µM | TGI [15]: 11.8 µM | GI50 [16]: 2.45 µM | TGI [16]: 8.89 µM | GI50 [17]: 1.48 µM | TGI [17]: 5.31 µM | GI50 [18]: 7.56 µM | TGI [18]: 16.4 µM | GI50 [19]: 9.12 µM | TGI [19]: 19.7 µM | GI50 [20]: 1.99 µM | TGI [20]: 8.03 µM | GI50 [21]: 8.64 µM | TGI [21]: 18.8 µM | GI50 [22]: 4.27 µM | TGI [22]: 11.5 µM | GI50 [23]: 1.76 µM | TGI [23]: 7.14 µM | GI50 [24]: 3.41 µM | TGI [24]: 11.7 µM | GI50 [25]: 8.24 µM | TGI [25]: 17.1 µM | GI50 [26]: 1.94 µM | TGI [26]: 7.56 µM | GI50 [27]: 9.85 µM | TGI [27]: 22.9 µM | GI50 [28]: 5.31 µM | TGI [28]: 14.8 µM | GI50 [29]: 5.26 µM | TGI [29]: 13.3 µM | GI50 [30]: 1.76 µM | TGI [30]: 6.84 µM | GI50 [31]: 5.75 µM | TGI [31]: 16.4 µM | GI50 [32]: 7.9 µM | TGI [32]: 16.7 µM | GI50 [33]: 8.16 µM | TGI [33]: 15.7 µM | GI50 [34]: 9.5 µM | TGI [34]: 20 µM | GI50 [35]: 8.96 µM | TGI [35]: 18.1 µM | GI50 [36]: 2.14 µM | TGI [36]: 8.32 µM | GI50 [37]: 7.76 µM | TGI [37]: 15.3 µM | GI50 [38]: 8.77 µM | TGI [38]: 18.9 µM | GI50 [39]: 2.7 µM | TGI [39]: 12.1 µM | GI50 [40]: 2.1 µM | TGI [40]: 8.62 µM | GI50 [41]: 4.69 µM | TGI [41]: 12.1 µM | GI50 [42]: 2.1 µM | TGI [42]: 7.54 µM | GI50 [43]: 4.73 µM | TGI [43]: 17.2 µM | GI50 [44]: 3.93 µM | TGI [44]: 11.3 µM | GI50 [45]: 2.01 µM | TGI [45]: 8.43 µM | GI50 [46]: 5.55 µM | TGI [46]: 14.9 µM | GI50 [47]: 3.33 µM | TGI [47]: 10.7 µM | GI50 [48]: 7.94 µM | TGI [48]: 17.9 µM | GI50 [49]: 3.8 µM | TGI [49]: 10.8 µM | GI50 [50]: 8.29 µM | TGI [50]: 16.2 µM | GI50 [51]: 1.05 µM | TGI [51]: 2.68 µM | GI50 [52]: 1.33 µM | TGI [52]: 4.38 µM | GI50 [53]: 2.99 µM | TGI [53]: 10.4 µM | GI50 [54]: 1.13 µM | TGI [54]: 2.81 µM | GI50 [55]: 9.2 µM | TGI [55]: 17.5 µM
